Results as given in US20170056336A1, “CO-TARGETING ANDROGEN RECEPTOR SPLICE VARIANTS AND MTOR SIGNALING PATHWAY FOR THE TREATMENT OF CASTRATION-RESISTANT PROSTATE CANCER” (British Columbia Cancer Agency Branch, priority 2015, published 2017).

Target: T1, AR-V7 (Homo sapiens, UniProt P10275)
T1 construct: expressed in transfected cells; host or cells: Cos-1
T1 sequence (P10275 1-644 isoform P10275-3): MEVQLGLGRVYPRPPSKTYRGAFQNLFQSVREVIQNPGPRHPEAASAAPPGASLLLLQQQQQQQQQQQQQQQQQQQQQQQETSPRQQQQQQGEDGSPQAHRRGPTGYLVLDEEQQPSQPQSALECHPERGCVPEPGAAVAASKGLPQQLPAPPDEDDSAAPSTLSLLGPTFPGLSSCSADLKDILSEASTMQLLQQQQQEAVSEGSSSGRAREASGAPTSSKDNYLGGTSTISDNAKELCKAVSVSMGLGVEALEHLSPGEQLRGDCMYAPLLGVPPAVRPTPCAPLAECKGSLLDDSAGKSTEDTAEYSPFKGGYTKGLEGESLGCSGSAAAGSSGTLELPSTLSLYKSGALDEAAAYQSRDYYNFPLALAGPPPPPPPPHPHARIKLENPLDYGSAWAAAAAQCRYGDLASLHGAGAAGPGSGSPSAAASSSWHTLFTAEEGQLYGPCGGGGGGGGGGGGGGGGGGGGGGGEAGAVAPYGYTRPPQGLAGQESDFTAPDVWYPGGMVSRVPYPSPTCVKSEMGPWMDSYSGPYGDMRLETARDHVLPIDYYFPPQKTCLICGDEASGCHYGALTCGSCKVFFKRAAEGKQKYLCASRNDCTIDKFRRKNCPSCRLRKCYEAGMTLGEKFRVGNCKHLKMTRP
Experiment: PB-luciferase assay in Cos-1 cells transfected with AR-V7
Assay type: cell-based
Conditions: 24 h, serum-free
Source text: Ectopic protein levels of AR-V7 and AR-V567 in Cos-1 cells are shown relative to endogenous levels of FL-AR in LNCaP cells.

Structure (SMILES): Cn1c(=O)n(-c2ccc(C(C)(C)C#N)cc2)c2c3cc(-c4cnc5ccccc5c4)ccc3ncc21 [BEZ-235, 2-methyl-2-[4-(3-methyl-2-oxo-8-quinolin-3-ylimidazo[4,5-c]quinolin-1-yl)phenyl]propanenitrile]
- transcriptional activity of AR-V7: no effect
